From ChEMBL document CHEMBL5506027, “Discovery of a Novel and Potent Cyclin-Dependent Kinase 8/19 (CDK8/19) Inhibitor for the Treatment of Cancer” (J Med Chem, 2024)

Tests used:
CDK8/Cyclin C = CDK8/Cyclin C (Homo sapiens, UniProt P49336); test: Displacement of tracer 236 from CDK8/cyclin C (unknown origin) preincubated for 15 mins followed by tracer addition and measured after 60 mins by FRET based lanthascreen assay; assay type: protein-complex assay
MV4-11 = test: Antiproliferative activity against human MV4-11 cells incubated for 5 days by CellTiter-Glo luminescent cell viability assay; assay type: functional, cell-based; details: MV4-11, 120 h

Sequence of CDK8/Cyclin C (P49336 whole entry): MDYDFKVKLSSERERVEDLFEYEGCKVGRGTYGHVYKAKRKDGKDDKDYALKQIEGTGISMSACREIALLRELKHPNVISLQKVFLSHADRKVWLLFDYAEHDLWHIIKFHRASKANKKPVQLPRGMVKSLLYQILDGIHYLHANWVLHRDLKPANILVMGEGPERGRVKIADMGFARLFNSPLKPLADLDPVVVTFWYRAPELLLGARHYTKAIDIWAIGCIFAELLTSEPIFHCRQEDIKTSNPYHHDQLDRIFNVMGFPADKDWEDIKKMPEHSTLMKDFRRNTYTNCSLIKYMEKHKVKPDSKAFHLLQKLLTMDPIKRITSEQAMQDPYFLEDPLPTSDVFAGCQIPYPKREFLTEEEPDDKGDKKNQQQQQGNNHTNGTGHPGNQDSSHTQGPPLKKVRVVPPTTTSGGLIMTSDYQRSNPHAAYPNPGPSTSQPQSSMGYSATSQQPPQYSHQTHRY
Sequence of CDK8/Cyclin C (P24863 whole entry, further chain): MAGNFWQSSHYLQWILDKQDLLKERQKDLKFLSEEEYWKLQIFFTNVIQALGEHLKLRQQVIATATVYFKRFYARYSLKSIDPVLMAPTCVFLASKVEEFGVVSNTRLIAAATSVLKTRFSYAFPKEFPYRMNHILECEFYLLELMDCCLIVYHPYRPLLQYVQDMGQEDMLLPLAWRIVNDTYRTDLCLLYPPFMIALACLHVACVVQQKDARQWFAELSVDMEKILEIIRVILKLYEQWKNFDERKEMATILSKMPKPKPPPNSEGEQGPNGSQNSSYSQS

IC50 (CDK8/Cyclin C) [nM] | IC50 (MV4-11) [nM] | Structure (SMILES)
48.6 | > 1000 | Brc1cc2c(nc(N3CCNCC3)n2C2CCOCC2)c(C2CC2)c1Br
> 1000 | 795 | Cc1c(Br)c(Br)cc2c1nc(N1CCNCC1)n2C1CC2(COC2)C1
11.2 | 146 | Cc1c(Br)c(Br)cc2c1nc(N1CCNCC1)n2[C@H]1CC[C@H](O)CC1
91 | > 1000 | Clc1c(Br)c(Br)cc2c1nc(N1CCNCC1)n2C1CCOCC1
7.9 | 39.4 | Cc1c(Br)c(Br)cc2c1nc(N1CCNCC1)n2C1CCOCC1
6.4 | 152 | CN1CCN(c2nc3c(C(F)F)c(Br)c(Br)cc3n2C2CCOCC2)CC1
33.6 | 360 | C=Cc1c(Br)c(Br)cc2c1nc(N1CCNCC1)n2C1CCOCC1
36.3 | 421 | Cc1c(Br)c(Br)cc2c1nc(N1CCNCC1)n2C1CCCC1
20 | 33.8 | N[C@@H]1CCN(c2nc3c(C(F)F)c(Br)c(Br)cc3n2C2CCOCC2)C1
6.5 | 32.7 | OCCN1CCN(c2nc3c(C(F)F)c(Br)c(Br)cc3n2C2CCOCC2)CC1
35 | 188 | NC1CCN(c2nc3c(C(F)F)c(Br)c(Br)cc3n2C2CCOCC2)CC1
139 | > 1000 | Cc1c(Br)c(Br)c(C)c2c1nc(N1CCNCC1)n2C1CCCC1
166 | 526 | Brc1cc2nc(N3CCNCC3)n(C3CCOCC3)c2cc1Br
16.7 | 478 | Cc1c(Br)c(Br)cc2c1nc(N1CCNCC1)n2C1CCCOC1 (stereo not given)
10.8 | 72.5 | C#Cc1c(Br)c(Br)cc2c1nc(N1CCNCC1)n2C1CCOCC1
